According to PubChem BioAssay (NCI):
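Growth conditions: 96-well plates. Treatment: test compound, 48 hours, 5 concentrations. Analysis: linear interpolation between bracketing concentrations; unreached endpoints set to highest concentration. TGI: total growth inhibition.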

Experiments:
Assay in all cases: inhibition of tumour cell growth, NCI panel, 48 h
A549 NSCLC = tested on: A549 NSCLC
ACHN renal = tested on: ACHN renal
CAKI-1 renal = tested on: CAKI-1 renal
CCRF-CEM leukemia = tested on: CCRF-CEM leukemia
COLO 205 colon = tested on: COLO 205 colon
DLD-1 colon = tested on: DLD-1 colon
DMS 114 small cell lung = tested on: DMS 114 small cell lung
DMS 273 small cell lung = tested on: DMS 273 small cell lung
HCC-2998 colon = tested on: HCC-2998 colon
HCT-116 colon = tested on: HCT-116 colon
HCT-15 colon = tested on: HCT-15 colon
HL-60(TB) leukemia = tested on: HL-60(TB) leukemia
HOP-18 NSCLC = tested on: HOP-18 NSCLC
HOP-92 NSCLC = tested on: HOP-92 NSCLC
HT29 colon = tested on: HT29 colon
KM12 colon = tested on: KM12 colon
LOX IMVI melanoma = tested on: LOX IMVI melanoma
LXFL 529 NSCLC = tested on: LXFL 529 NSCLC
MALME-3M melanoma = tested on: MALME-3M melanoma
MOLT-4 leukemia = tested on: MOLT-4 leukemia
NCI-H226 lung = tested on: NCI-H226 lung
NCI-H23 lung = tested on: NCI-H23 lung
NCI-H460 lung = tested on: NCI-H460 lung
NCI-H522 lung = tested on: NCI-H522 lung
OVCAR-4 ovarian = tested on: OVCAR-4 ovarian
OVCAR-5 ovarian = tested on: OVCAR-5 ovarian
RPMI-8226 leukemia = tested on: RPMI-8226 leukemia
RXF 393 renal = tested on: RXF 393 renal
SF-268 CNS = tested on: SF-268 CNS
SF-295 CNS = tested on: SF-295 CNS
SK-MEL-2 melanoma = tested on: SK-MEL-2 melanoma
SK-MEL-28 melanoma = tested on: SK-MEL-28 melanoma
SK-MEL-5 melanoma = tested on: SK-MEL-5 melanoma
SK-OV-3 ovarian = tested on: SK-OV-3 ovarian
SN12C renal = tested on: SN12C renal
SNB-19 CNS = tested on: SNB-19 CNS
SNB-75 CNS = tested on: SNB-75 CNS
SNB-78 CNS = tested on: SNB-78 CNS
SR leukemia = tested on: SR leukemia
SW-620 colon = tested on: SW-620 colon
TK-10 renal = tested on: TK-10 renal
U251 CNS = tested on: U251 CNS
UACC-257 melanoma = tested on: UACC-257 melanoma
A498 renal = tested on: A498 renal
EKVX NSCLC = tested on: EKVX NSCLC
HOP-62 NSCLC = tested on: HOP-62 NSCLC
IGROV1 ovarian = tested on: IGROV1 ovarian
K-562 leukemia = tested on: K-562 leukemia
KM20L2 colon = tested on: KM20L2 colon
M14 melanoma = tested on: M14 melanoma
M19-MEL melanoma = tested on: M19-MEL melanoma
OVCAR-3 ovarian = tested on: OVCAR-3 ovarian
OVCAR-8 ovarian = tested on: OVCAR-8 ovarian
SF-539 CNS = tested on: SF-539 CNS
UACC-62 melanoma = tested on: UACC-62 melanoma
UO-31 renal = tested on: UO-31 renal
786-0 renal = tested on: 786-0 renal

`NC1C(O)C(O)C(CO)OC1n1cc(F)c(=O)[nH]c1=O` (stereo unspecified) showed a TGI (A549 NSCLC) greater than 100 µM, a TGI (ACHN renal) greater than 100 µM and a TGI (CAKI-1 renal) greater than 100 µM. For the same compound, the TGI (CCRF-CEM leukemia) was greater than 100 µM, the TGI (COLO 205 colon) was greater than 100 µM and the TGI (DLD-1 colon) was greater than 100 µM. For the same compound, the TGI (DMS 114 small cell lung) was greater than 100 µM, the TGI (DMS 273 small cell lung) was greater than 100 µM and the TGI (HCC-2998 colon) was greater than 100 µM. The TGI (HCT-116 colon) was greater than 100 µM, the TGI (HCT-15 colon) was greater than 100 µM and the TGI (HL-60(TB) leukemia) was greater than 100 µM. It also gave a TGI (HOP-18 NSCLC) greater than 100 µM, a TGI (HOP-92 NSCLC) greater than 100 µM and a TGI (HT29 colon) greater than 100 µM. For the same compound, the TGI (KM12 colon) was greater than 100 µM, the TGI (LOX IMVI melanoma) was greater than 100 µM and the TGI (LXFL 529 NSCLC) was greater than 100 µM. It also gave a TGI (MALME-3M melanoma) greater than 100 µM, a TGI (MOLT-4 leukemia) greater than 100 µM and a TGI (NCI-H226 lung) greater than 100 µM. For the same compound, the TGI (NCI-H23 lung) was greater than 100 µM, the TGI (NCI-H460 lung) was greater than 100 µM and the TGI (NCI-H522 lung) was greater than 100 µM. The TGI (OVCAR-4 ovarian) was greater than 100 µM, the TGI (OVCAR-5 ovarian) was greater than 100 µM and the TGI (RPMI-8226 leukemia) was greater than 100 µM. It also gave a TGI (RXF 393 renal) greater than 100 µM, a TGI (SF-268 CNS) greater than 100 µM and a TGI (SF-295 CNS) greater than 100 µM. For the same compound, the TGI (SK-MEL-2 melanoma) was greater than 100 µM, the TGI (SK-MEL-28 melanoma) was greater than 100 µM and the TGI (SK-MEL-5 melanoma) was greater than 100 µM. The TGI (SK-OV-3 ovarian) was greater than 100 µM, the TGI (SN12C renal) was greater than 100 µM and the TGI (SNB-19 CNS) was greater than 100 µM. It also gave a TGI (SNB-75 CNS) greater than 100 µM, a TGI (SNB-78 CNS) greater than 100 µM and a TGI (SR leukemia) greater than 100 µM. For the same compound, the TGI (SW-620 colon) was greater than 100 µM, the TGI (TK-10 renal) was greater than 100 µM and the TGI (U251 CNS) was greater than 100 µM. For the same compound, the TGI (UACC-257 melanoma) was greater than 100 µM.
Compound `O=C(OCCOC(=O)c1ccc2c(c1)C1(SCCS1)c1ccccc1-2)c1ccc2c(c1)C1(SCCS1)c1ccccc1-2` has a TGI (A498 renal) greater than 100 µM, a TGI (A549 NSCLC) greater than 100 µM and a TGI (ACHN renal) greater than 100 µM. It also gave a TGI (CAKI-1 renal) greater than 100 µM, a TGI (CCRF-CEM leukemia) greater than 100 µM and a TGI (COLO 205 colon) greater than 100 µM. For the same compound, the TGI (DLD-1 colon) was greater than 100 µM, the TGI (DMS 114 small cell lung) was greater than 100 µM and the TGI (EKVX NSCLC) was greater than 100 µM. The TGI (HCC-2998 colon) was greater than 100 µM, the TGI (HCT-116 colon) was greater than 100 µM and the TGI (HCT-15 colon) was greater than 100 µM. For the same compound, the TGI (HL-60(TB) leukemia) was greater than 100 µM, the TGI (HOP-18 NSCLC) was greater than 100 µM and the TGI (HOP-62 NSCLC) was greater than 100 µM. It also gave a TGI (HT29 colon) greater than 100 µM, a TGI (IGROV1 ovarian) greater than 100 µM and a TGI (K-562 leukemia) greater than 100 µM. For the same compound, the TGI (KM12 colon) was greater than 100 µM, the TGI (KM20L2 colon) was greater than 100 µM and the TGI (LOX IMVI melanoma) was greater than 100 µM. It also gave a TGI (LXFL 529 NSCLC) greater than 100 µM, a TGI (M14 melanoma) greater than 100 µM and a TGI (M19-MEL melanoma) greater than 100 µM. For the same compound, the TGI (MALME-3M melanoma) was greater than 100 µM, the TGI (MOLT-4 leukemia) was greater than 100 µM and the TGI (NCI-H226 lung) was greater than 100 µM. It also gave a TGI (NCI-H23 lung) greater than 100 µM, a TGI (NCI-H460 lung) greater than 100 µM and a TGI (NCI-H522 lung) greater than 100 µM. It also gave a TGI (OVCAR-3 ovarian) greater than 100 µM, a TGI (OVCAR-4 ovarian) greater than 100 µM and a TGI (OVCAR-5 ovarian) greater than 100 µM. For the same compound, the TGI (OVCAR-8 ovarian) was greater than 100 µM, the TGI (RPMI-8226 leukemia) was greater than 100 µM and the TGI (SF-268 CNS) was greater than 100 µM. It also gave a TGI (SF-295 CNS) greater than 100 µM, a TGI (SF-539 CNS) greater than 100 µM and a TGI (SK-MEL-2 melanoma) greater than 100 µM. For the same compound, the TGI (SK-MEL-28 melanoma) was greater than 100 µM, the TGI (SK-MEL-5 melanoma) was greater than 100 µM and the TGI (SK-OV-3 ovarian) was greater than 100 µM. For the same compound, the TGI (SN12C renal) was greater than 100 µM, the TGI (SNB-19 CNS) was greater than 100 µM and the TGI (SNB-75 CNS) was greater than 100 µM. The TGI (SNB-78 CNS) was greater than 100 µM, the TGI (SR leukemia) was greater than 100 µM and the TGI (SW-620 colon) was greater than 100 µM. For the same compound, the TGI (U251 CNS) was greater than 100 µM, the TGI (UACC-257 melanoma) was greater than 100 µM and the TGI (UACC-62 melanoma) was greater than 100 µM. It also gave a TGI (UO-31 renal) greater than 100 µM.
Compound `COC(=O)C1Cc2c([nH]c3ccccc23)C(c2ccccc2O)N1` (stereo unspecified) has a TGI (786-0 renal) greater than 100 µM, a TGI (A498 renal) greater than 100 µM and a TGI (A549 NSCLC) greater than 100 µM. The TGI (ACHN renal) was greater than 100 µM, the TGI (CAKI-1 renal) was greater than 100 µM and the TGI (CCRF-CEM leukemia) was greater than 100 µM. The TGI (COLO 205 colon) was 93.8 µM, the TGI (DLD-1 colon) was greater than 100 µM and the TGI (DMS 114 small cell lung) was greater than 100 µM. It also gave a TGI (DMS 273 small cell lung) greater than 100 µM, a TGI (EKVX NSCLC) greater than 100 µM and a TGI (HCC-2998 colon) greater than 100 µM. For the same compound, the TGI (HCT-116 colon) was greater than 100 µM, the TGI (HCT-15 colon) was greater than 100 µM and the TGI (HL-60(TB) leukemia) was 75.4 µM. The TGI (HOP-18 NSCLC) was greater than 100 µM, the TGI (HOP-92 NSCLC) was greater than 100 µM and the TGI (HT29 colon) was greater than 100 µM. For the same compound, the TGI (IGROV1 ovarian) was greater than 100 µM, the TGI (K-562 leukemia) was greater than 100 µM and the TGI (KM12 colon) was greater than 100 µM. For the same compound, the TGI (KM20L2 colon) was greater than 100 µM, the TGI (LOX IMVI melanoma) was greater than 100 µM and the TGI (LXFL 529 NSCLC) was greater than 100 µM. The TGI (M14 melanoma) was greater than 100 µM, the TGI (MALME-3M melanoma) was greater than 100 µM and the TGI (MOLT-4 leukemia) was greater than 100 µM. The TGI (NCI-H226 lung) was greater than 100 µM, the TGI (NCI-H23 lung) was greater than 100 µM and the TGI (NCI-H460 lung) was 47.1 µM. It also gave a TGI (NCI-H522 lung) greater than 100 µM, a TGI (OVCAR-3 ovarian) greater than 100 µM and a TGI (OVCAR-4 ovarian) greater than 100 µM. It also gave a TGI (OVCAR-5 ovarian) greater than 100 µM, a TGI (OVCAR-8 ovarian) greater than 100 µM and a TGI (SF-295 CNS) greater than 100 µM. The TGI (SF-539 CNS) was greater than 100 µM, the TGI (SK-MEL-2 melanoma) was greater than 100 µM and the TGI (SK-MEL-28 melanoma) was greater than 100 µM. It also gave a TGI (SK-MEL-5 melanoma) greater than 100 µM, a TGI (SK-OV-3 ovarian) greater than 100 µM and a TGI (SN12C renal) greater than 100 µM. It also gave a TGI (SNB-19 CNS) greater than 100 µM, a TGI (SNB-75 CNS) greater than 100 µM and a TGI (SR leukemia) greater than 100 µM. The TGI (SW-620 colon) was greater than 100 µM, the TGI (TK-10 renal) was greater than 100 µM and the TGI (U251 CNS) was greater than 100 µM. The TGI (UACC-257 melanoma) was greater than 100 µM, the TGI (UACC-62 melanoma) was greater than 100 µM and the TGI (UO-31 renal) was 97.9 µM.
